Assay results published in PubChem BioAssay (NCI).
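Method: 48-hour compound exposure of cells in 96-well plates, five concentrations, linear interpolation of endpoints. GI50: concentration for 50% inhibition of growth. At the TGI there is no net growth.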

Assays:
Test in all cases: NCI anticancer screen, dose series, 48 h
KM12 colon = tested on: KM12 colon
MDA-MB-435 = tested on: MDA-MB-435
RPMI-8226 leukemia = tested on: RPMI-8226 leukemia
NCI-H522 lung = tested on: NCI-H522 lung
HOP-92 NSCLC = tested on: HOP-92 NSCLC
UACC-257 melanoma = tested on: UACC-257 melanoma
A498 renal = tested on: A498 renal
ACHN renal = tested on: ACHN renal
OVCAR-8 ovarian = tested on: OVCAR-8 ovarian
HCC-2998 colon = tested on: HCC-2998 colon

| SMILES | GI50 (KM12 colon) [µM] | TGI (KM12 colon) [µM] | GI50 (MDA-MB-435) [µM] | TGI (MDA-MB-435) [µM] | GI50 (RPMI-8226 leukemia) [µM] | TGI (RPMI-8226 leukemia) [µM] | GI50 (NCI-H522 lung) [µM] | TGI (NCI-H522 lung) [µM] | GI50 (HOP-92 NSCLC) [µM] | TGI (HOP-92 NSCLC) [µM] | GI50 (UACC-257 melanoma) [µM] | TGI (UACC-257 melanoma) [µM] | GI50 (A498 renal) [µM] | TGI (A498 renal) [µM] | GI50 (ACHN renal) [µM] | TGI (ACHN renal) [µM] | GI50 (OVCAR-8 ovarian) [µM] | TGI (OVCAR-8 ovarian) [µM] | TGI (HCC-2998 colon) [µM] | GI50 (HCC-2998 colon) [µM] |
| --- | --- | --- | --- | --- | --- | --- | --- | --- | --- | --- | --- | --- | --- | --- | --- | --- | --- | --- | --- | --- |
| Fc1ccc(-c2nn3c(COc4ccc(Cl)cc4Cl)nnc3s2)cc1Oc1ccccc1 | 28.9 | 91.2 | 16.8 | 50.8 | 18.3 | 39.1 | 27 | > 100 | 0.254 | 7.93 | 55.4 | > 100 | 20.2 | 40.6 | 14.1 | 27.3 | 27.8 | > 100 |  |  |
| COC(=O)NC(=O)c1cn(C2CCCCC2)c(=O)[nH]c1=O |  | > 100 |  |  |  | > 100 |  | > 100 |  | > 100 |  | > 100 |  | > 100 |  | > 100 |  | > 100 | > 100 |  |
| CC1(C)CC(N2CCN(C3CC(C)(C)NC(C)(C)C3)CC2)CC(C)(C)N1 |  | > 100 |  |  |  | > 100 |  | > 100 |  | > 100 |  | > 100 |  | > 100 |  | > 100 |  | > 100 | > 100 |  |
| O=C(CSc1ncc(-c2ccccc2)n1-c1ccccc1)Nc1ccc(-c2nc3ccccc3s2)cc1 |  |  |  |  | > 100 | > 100 | 8.11 | > 100 | 22.6 | 83.1 |  |  | 39.7 | > 100 | 14.5 | > 100 |  |  | > 100 | > 100 |
| COC(CC1(OC)OC(=O)C=C1N)OC (configuration not stated) |  | > 100 |  |  |  | > 100 |  | > 100 |  | > 100 |  | > 100 |  | > 100 |  | > 100 |  | > 100 | > 100 |  |
| Fc1ccc(C2C3CCOc4c(ccc5ccccc45)C3=NN2c2ccccc2)cc1 (configuration not stated) | > 100 | > 100 | > 100 | > 100 | 63.5 | > 100 | > 100 | > 100 | > 84.6 | > 100 | 43.9 | > 100 | > 100 | > 100 | 88.6 | > 100 | > 60.2 | > 100 |  |  |
| COC(=O)C1=C(\O)C[C@@]2(C)CC[C@@H](C(=O)OC)C2C/C=C\1C(=O)OC (some centres not stated) |  | > 100 |  |  |  | > 100 |  | > 100 |  | > 100 |  | > 100 |  | 75.3 |  | > 100 |  | > 100 | > 100 |  |
| N#CC1C(=O)NC(=O)C1=O (configuration not stated) |  | > 100 |  |  |  | > 100 |  | > 100 |  | > 100 |  | > 100 |  | > 100 |  | > 100 |  | > 100 | > 100 |  |
| CCCCCCCCCCCC(=O)OC(COC(N)=O)COc1ccc(Cl)cc1 (configuration not stated) |  | 61.1 |  |  |  | 47 |  | 31.5 |  |  |  | 51 |  | > 100 |  | > 100 |  | 33.6 | 96.1 |  |
| CC(=O)C(C=O)C(C)=O.CC(=O)CC(C)=O.CC(=O)CC(C)=O.[Ru] | 27.2 | > 100 | 43.5 | > 100 |  |  | 16.4 | 55.1 | 17.4 | 94.1 | 32.9 | > 100 |  |  | 21 | > 100 | 17.4 | > 100 |  |  |
| O=C1N=C(Nc2nc(-c3csc(NC4=NC(=O)/C(=C\c5ccc(Cl)cc5)S4)n3)cs2)S/C1=C/c1ccc(Cl)cc1 | 10.1 | 35.6 | 12.8 | > 50 |  |  | 24.7 | > 50 | 8.61 | 28.5 | 5.14 | 18.1 |  |  | 11.2 | 48.5 | 8.99 | 30.2 | 45.2 | 13.3 |
| NC(=O)c1cc([N+](=O)[O-])cc([N+](=O)[O-])c1 |  | > 100 |  |  |  | > 100 |  | > 100 |  | > 100 |  | > 100 |  | > 100 |  | > 100 |  | > 100 |  |  |
| Cc1[nH]n(-c2cccc(Cl)c2)c(=O)c1/C=C1\C=c2ccccc2=CC1=O | > 100 | > 100 | > 100 | > 100 | > 100 | > 100 | > 100 | > 100 |  |  | > 100 | > 100 | > 100 | > 100 | 17 | > 100 | > 100 | > 100 |  |  |
| O=C(/C=C/c1ccc(O)cc1)c1cc(Cl)ccc1O |  | > 100 |  |  |  |  |  | 36.2 |  | > 100 |  | > 100 |  | > 100 |  | > 100 |  | > 100 | > 100 |  |
| ClCCCCOC1CCCCO1 (configuration not stated) |  | > 100 |  |  |  |  |  | > 100 |  | > 100 |  | > 100 |  | > 100 |  | > 100 |  | > 100 | > 100 |  |
| COc1cc(/C=C/c2cc(O)c(C/C=C(\C)CC/C=C(\C)CO)c(O)c2)cc2c1O[C@]1(C)CC[C@@H](O)C(C)(C)[C@H]1C2 |  | > 100 | 38.4 | > 79.6 |  |  |  |  |  | > 84.6 | > 100 | > 100 |  |  |  | > 71.4 | > 53.3 | > 82.3 | 39.6 | 12 |
| O=C1c2ccccc2C(=O)c2c1ccc1c2N=C(c2ccc(Br)cc2)CC(c2cccc3ccccc23)N1 (configuration not stated) |  | > 100 |  |  |  | > 100 |  | > 100 |  |  |  | > 100 |  |  |  | > 100 |  | > 100 | > 100 |  |
| N=C1/C(=C2\Nc3ccccc3S2)CC(=O)N1c1ccc(SC(F)F)cc1 | 8.13 | > 100 | 7.69 | > 100 | 0.626 | 66 | 17.3 | > 100 |  |  | > 100 | > 100 |  |  | 6.98 | > 100 | 7.42 | > 100 |  |  |
| CCCCC(C(=O)CCC(=O)Nc1ccc(Cl)cc1)C(=O)C(C)C (configuration not stated) |  | > 100 |  |  |  | > 100 |  | > 100 |  | > 100 |  | > 100 |  | > 100 |  | > 100 |  | > 100 | > 100 |  |
| Cc1c(O)c(Br)c(C)c(O)c1Br (tested in a mixture with another compound) |  | 41.2 |  | 3.44 |  | 6.06 |  |  |  | 3.03 |  | 3.02 |  | 29 |  | 3.05 |  |  |  |  |
| CN1CCc2cc3c4cc2C1Cc1ccc(cc1)Oc1cc(ccc1O)CC1c2c(cc(O)c(c2O4)O3)CCN1C (configuration not stated) |  | 4.43 |  |  |  | 4.02 |  | 11.1 |  | 8.13 |  | 4.04 |  |  |  | 20.7 |  | 8.55 | 4.11 |  |
| C=C1C(=O)C2(C)OC2(C)C1C(=O)O (configuration not stated) |  | > 100 |  | > 100 |  | > 100 |  | > 100 |  | > 100 |  | > 100 |  |  |  | > 100 |  | > 100 | > 100 |  |
| CC1CC(c2ccc(Cl)c(Cl)c2)=Nc2ccccc2S1 (configuration not stated) |  | > 100 |  |  |  | > 100 |  | > 100 |  | > 100 |  | > 100 |  | > 100 |  | > 100 |  | > 100 | > 100 |  |
| CCCCCCSc1nc(COC(=O)NC)c(COC(=O)NC)n1C |  | > 100 |  | > 100 |  | > 100 |  | > 100 |  |  |  | > 100 |  | > 100 |  | > 100 |  | > 100 |  |  |
| NCC1(N2CCOCC2)C2CCCC21CNc1ccccc1 (configuration not stated) |  | > 100 |  |  |  |  |  | > 100 |  | > 100 |  | > 100 |  |  |  | > 100 |  | > 100 | > 100 |  |
| O=C1CC[C@@H](NC(=O)Cc2ccccc2)C(=O)N1 |  | > 100 |  |  |  | > 100 |  | > 100 |  | > 100 |  | > 100 |  | > 100 |  | > 100 |  | > 100 | > 100 |  |
| O=C(O)c1cn(C2CC2)c2cc(N3CCN(Cc4ccc5ccccc5c4O)CC3)c(F)cc2c1=O |  |  | 3.12 | > 100 |  |  |  |  | 2.15 | 5.44 |  |  | 2.09 | 4.67 |  |  | 3.74 | > 100 |  |  |
| CC1COCCN1CC#CCOC(=O)c1cc2ccccc2oc1=O (configuration not stated) | > 100 | > 100 | > 100 | > 100 | > 100 | > 100 | > 100 | > 100 | 72.5 | > 100 | > 100 | > 100 |  |  | > 100 | > 100 | > 100 | > 100 | > 100 | > 100 |
| Cc1ccc(NC(=O)C(=O)CC(=O)c2ccccc2)cc1C |  | > 100 |  |  |  | > 100 |  | > 100 |  | > 100 |  | > 100 |  | > 100 |  | > 100 |  | > 100 | > 100 |  |
| c1ccc2c(c1)N=C(c1ccc3ccccc3c1)CC(c1cccc3ccccc13)S2 (configuration not stated) |  | > 100 |  |  |  | 52.5 |  | 75.4 |  |  |  | > 100 |  | 75.4 |  | > 100 |  | > 100 | 40.3 |  |
